One experiment deals with T1, Human TOP2A (Homo sapiens, UniProt P11388).
T1 construct: purchased TopoGEN (Buena Vista, CO)
The experiment is described as follows: TOP2A DNA decatenation assay (kDNA, agarose gel). In kind it is biochemical. As to conditions: for TOP2A inhibition, result in words: decatenation screen at 30 μM. As for the experimental part: Inhibition of TOP2A activity. Human TOP2A, kDNA, and assay buffers were obtained from TopoGEN (Buena Vista, CO). The synthesized compounds were screened for their TOP2A inhibitory activity by the intensity of DNA decatenation bands on a DNA gel when compared to the vehicle. Compounds were initially incubated with TOP2A (3 U/reaction) for 20 min at a 30 μM and 1.2% DMSO concentration in a 37° C. incubator without CO2.
The decatenation reaction was initiated immediately after by adding 2 mM ATP and 35 ng/reaction of kDNA, then incubated for 1 hour in a 37° C. water bath. The samples were loaded into a 0.8% agarose gel in 1× Tris-Borate-EDTA (TBE) at a 0.2 μg/mL ethidium bromide concentration and allowed to run in an electrophoretic chamber for 1 hour at 100V. Compounds with the highest inhibitory activity were selected for 2-fold serial dilution dose-response assays (58.6 nM-30 μM). The dose-response assays followed the same protocol with the exception of 4 U/reaction of TOP2A.
Inhibition studies of TOP2A and observed structure activity relationships (SAR). DNA catenation/decatenation or linking/unlinking of DNA is one of the main TOP2A functions essential for regulating DNA topology, and this is ATP dependent. […] Thus, as a starting point, the synthesized analogs were screened against TOP2A-dependent decatenation using 30 μM fixed concentrations, and the DNA from reactions were resolved on 0.8% agarose gels containing ethidium bromide.
Moreover, these studies provided interesting SAR, which shed light on the potential lead drug target binding interactions and affinity, biological activity, and future drug design optimization with this unique class of TOP2A inhibitors.
(§1) TOP2A decatenation assay. Human TOP2A, kDNA, and assay buffers were obtained from TopoGEN (Buena Vista, CO). The synthesized compounds were screened for their TOP2A inhibitory activity by the intensity of DNA decatenation bands on a DNA gel when compared to the vehicle. Compounds were initially incubated with TOP2A (3 U/reaction) for 20 min at a 30 μM and 1.2% DMSO concentration in a 37° C. incubator without CO2. The decatenation reaction was initiated immediately after by adding 2 mM ATP and 35 ng/reaction of kDNA, then incubated for 1 h in a 37° C. water bath. The samples were loaded into a 0.8% agarose gel in 1× Tris-Borate-EDTA (TBE) at a 0.2 μg/mL ethidium bromide concentration and allowed to run in an electrophoretic chamber for 1 h at 100V. Compounds with the highest inhibitory activity were selected for 2-fold serial dilution dose-response assays (58.6 nM-30 μM). The dose-response assays followed the same protocol with the exception of 4 U/reaction of TOP2A,
as §1, with “assays (53.6” for “assays (58.6”, “of TOP2A.” for “of TOP2A,”

Experiment [1] relates to E-cadherin promoter activity (EcadPro-RFP) in SW620 cells. Nature of the experiment: EcadPro-RFP (mCherry) EMT reporter assay. Particulars: Homo sapiens, SW-620; Table 3; SW620 Cells; read-out: E-cadherin Up-regulation EC50. It is filed as cell-based.
Excerpt: (§2) VimPro-GFP and EcadPro-RFP reporter assays. […] 35(38): p. 4990-9.]
as §2

In experiment [2] the test system is vimentin promoter activity (VimPro-GFP) in SW620 cells. The experiment is described as follows: VimPro-GFP EMT reporter assay. Particulars: Homo sapiens, SW-620, read-out: Vimentin Down-regulation EC50 (μM).
Description: VimPro-GFP and EcadPro-mCherry reporter assays. VimPiro-GFP: SW620 cells were first transduced with NucLight Red virus (Essen BioSciences) and selected with Zeocin at 200 μg/mL, and then transduced with pCDH-VimPro-GFP-EF1-puro virus and selected with puromycin at 4 μg/mL. The dual fluorescently labeled cells were plated and treated in 3D tumor organoid as described. Tumor organoid images were recorded every 2 hours over a 72 hours period using an incucyte ZOOM content imaging system (Essen BioSciences) or PerkinElmer Phenix imager (PerkinElmer).
Analogs were also assessed for their ability to modulate or reverse EMT using VimPro-GFP and EcadPro-RFP SW620 reporter cells cultured as tumor organoids, determining EC50 dose responses over 72 hours (Table 2).
VimPro-GFP and EcadPro-RFP reporter assays. Stable VimPro-GFP or EcadPro-RFP SW620 reporter cells were generated using pCDH-VimPro-GFP-EF1-puro virus or pCDH-EcadPro-mCherry-EF1-puro virus as previously reported. […] Transduced cells were selected with puromycin at 2 μg/mL. The stable fluorescent labeled reporter cells were then used to generate tumor organoids as described. Tumor organoids were then treated with TOP2A inhibitors at 10 μM for an additional 72 h. Following treatment, tumor organoids were stained with 16 μM of Hoechst 33342 for 1 h, which functions as a nuclear stain for imaging segmentation. Images were taken with a 5× air objective. Z stacks were set at 20 μm apart for a total of 7 layers. Imaging analysis was performed using an Opera Phenix high content screening (HCS) system and Harmony high-content imaging and analysis software interface (PerkinElmer, MA). Nuclei were identified with Hoechst 33342 stain within each layer, and cells were found with either GFP or mCherry channel. The intensities of each fluorescence channel within the cells were calculated and thresholds were set based on the background intensities. Percentages of GFP or mCherry positive cells were calculated and normalized to the DMSO treated group.
VimPro-GFP and EcadPro-RFP reporter assays. Stable VimPro-GFP or EcadPro-RFP SW620 reporter cells were generated using pCDH-VimPro-GFP-EF1-puro virus or pCDH-EcadPro-mCherry-EF1-puro virus as previously reported. […] Transduced cells were selected with puromycin at 2 μg/mL. The stable fluorescent labeled reporter cells were then used to generate tumor organoids as described. Tumor organoids were then treated with TOP2A inhibitors at 10 μM for an additional 72 h. Following treatment, tumor organoids were stained with 16 μM of Hoechst 33342 for 1 h, which functions as a nuclear stain for imaging segmentation. Images were taken with a 5× air objective.
Setting [3] is: Table 3, 30 μM, read-out: % TOP2A Decatenation inhibition (30 μM).
The mark [4] stands for this setting: Table 3, read-out: TOP2A Inhibition IC50.
Where [5] appears, read: Table 1, decatenation, 30 μM fixed concentration.
Setting [6] is: 1 h, Table 1, decatenation, 30 μM fixed concentration, read-out: % Inhibition TOP2A (30 μM).
[7] abbreviates: Table 1, decatenation dose response, read-out: % Inhibition TOP2A (IC50 Values).

Where two headings read alike, the source gives them in different places.

T1 sequence (P11388 whole entry): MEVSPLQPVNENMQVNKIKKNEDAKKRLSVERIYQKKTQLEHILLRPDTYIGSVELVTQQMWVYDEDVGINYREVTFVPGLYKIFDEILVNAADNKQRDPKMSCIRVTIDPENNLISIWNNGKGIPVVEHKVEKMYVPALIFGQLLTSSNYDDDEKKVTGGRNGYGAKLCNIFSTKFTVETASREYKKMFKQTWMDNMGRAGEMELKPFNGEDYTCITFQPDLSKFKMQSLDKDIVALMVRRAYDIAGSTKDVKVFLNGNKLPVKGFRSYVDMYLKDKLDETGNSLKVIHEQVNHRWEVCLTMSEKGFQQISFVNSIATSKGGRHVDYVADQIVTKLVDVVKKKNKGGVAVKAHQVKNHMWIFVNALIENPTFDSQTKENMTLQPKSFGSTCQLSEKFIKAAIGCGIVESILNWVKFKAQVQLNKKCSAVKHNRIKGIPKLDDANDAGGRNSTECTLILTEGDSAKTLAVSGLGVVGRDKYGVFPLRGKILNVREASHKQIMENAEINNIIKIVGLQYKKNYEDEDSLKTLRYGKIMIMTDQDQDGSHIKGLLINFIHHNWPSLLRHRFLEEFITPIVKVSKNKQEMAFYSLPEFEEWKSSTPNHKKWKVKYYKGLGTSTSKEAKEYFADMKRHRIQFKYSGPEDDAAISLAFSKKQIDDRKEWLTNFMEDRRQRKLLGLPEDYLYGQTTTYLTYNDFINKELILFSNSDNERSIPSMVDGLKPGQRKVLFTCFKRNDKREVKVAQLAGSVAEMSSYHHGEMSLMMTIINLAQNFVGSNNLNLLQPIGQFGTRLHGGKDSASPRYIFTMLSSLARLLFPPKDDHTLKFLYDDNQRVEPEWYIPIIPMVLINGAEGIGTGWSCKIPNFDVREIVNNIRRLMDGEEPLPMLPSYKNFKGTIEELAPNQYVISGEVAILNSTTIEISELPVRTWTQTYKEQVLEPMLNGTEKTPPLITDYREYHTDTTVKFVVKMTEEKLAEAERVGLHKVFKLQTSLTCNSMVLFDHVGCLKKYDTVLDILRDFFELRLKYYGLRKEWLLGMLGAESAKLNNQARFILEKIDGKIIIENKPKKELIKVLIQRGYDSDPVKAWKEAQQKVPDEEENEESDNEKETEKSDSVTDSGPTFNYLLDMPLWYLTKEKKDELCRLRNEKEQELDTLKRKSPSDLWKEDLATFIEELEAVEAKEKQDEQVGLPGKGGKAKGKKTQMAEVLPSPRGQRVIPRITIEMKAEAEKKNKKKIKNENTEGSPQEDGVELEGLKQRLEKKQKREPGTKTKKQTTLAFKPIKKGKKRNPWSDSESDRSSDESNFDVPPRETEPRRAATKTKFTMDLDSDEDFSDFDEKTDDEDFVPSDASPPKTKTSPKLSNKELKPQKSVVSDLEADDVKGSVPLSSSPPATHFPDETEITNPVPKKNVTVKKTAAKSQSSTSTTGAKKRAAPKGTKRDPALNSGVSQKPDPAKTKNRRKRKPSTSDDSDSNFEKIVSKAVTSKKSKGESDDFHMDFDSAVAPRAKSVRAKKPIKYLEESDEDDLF

Turning to `CC(=O)Nc1ccc2c(Nc3ccc4[nH]ccc4c3)ccnc2c1O` [AA-29-136], at Human TOP2A (setting [3]), the inhibition at 30 µM amounted to 90%. Besides, the EC50 in experiment [1] turned out to be 8.4 µM; in experiment [2] it was 4.1 µM.
As to `CC(=O)Nc1ccc2c(Nc3cccc(F)c3)ccnc2c1O` [AA-29-146], the inhibition at 30 µM on Human TOP2A (setting [3]) was determined as 100%. The concentration for a half-maximal effect (EC50) came to 9.7 µM in experiment [1] and 7.4 µM in experiment [2].
Take `CC(=O)Nc1ccc2c(Nc3cccc4[nH]ccc34)ccnc2c1O` [AA-29-147]: the EC50 came to 146 µM in experiment [1] and 14.8 µM in experiment [2].
On to `CC(=O)Nc1ccc2c(Nc3ccccc3)ccnc2c1O` [AA-29-148], for which, on Human TOP2A (setting [3]), the inhibition at 30 µM was 100%. For the same molecule, the EC50 stood at 7.6 µM in experiment [1] and 25.9 µM in experiment [2].
In the case of `CC(=O)Nc1ccc2c(Nc3ccc4[nH]c(C)cc4c3)ccnc2c1O` [AA-29-155], the figures for the EC50 in experiment [1] and in experiment [2] were 128 µM and 9.56 µM, respectively.
As for `CC(=O)Nc1ccc2c(Nc3cccc(C(F)(F)F)c3)ccnc2c1O` [AA-29-157], the EC50 in experiment [1] came out at 180 µM; in experiment [2] it was 29.9 µM.
On the same counts, the results for `CC(=O)Nc1ccc2c(Nc3ccc(C(F)(F)F)cc3)ccnc2c1O` [AA-29-158] are 65.1 µM and 1.36 µM.
On the same counts, the results for `CC(=O)Nc1ccc2c(Nc3cc(O)ccc3F)ccnc2c1O` [AA-29-171] are 139 µM and 26.6 µM.
With `CC(=O)Nc1ccc2c(Nc3ccc(O)cc3F)ccnc2c1O` [AA-29-172], the EC50 in experiment [1] was found to be 58.5 µM; in experiment [2], 45.9 µM.
Take `CC(=O)Nc1ccc2c(NC3CCCCC3)ccnc2c1O` [AA-29-216]: the inhibition at 30 µM at Human TOP2A (setting [3]) is 100%. For the same molecule, on Human TOP2A (setting [4]), the IC50 was 0.29 µM. For the same molecule, the figures for the EC50 in experiment [1] and in experiment [2] were 17.8 µM and 20.6 µM, respectively.
On the same counts, the results for `CC(=O)Nc1ccc2c(NC3CCCCCC3)ccnc2c1O` [AA-34-130] are 100%, 1.53 µM, 36.5 µM and 59 µM.
On the same counts, the results for `CC(=O)Nc1ccc2c(NC3CCCC3)ccnc2c1O` [AA-34-131] are 92%, 2.16 µM, 21.3 µM and 23 µM.
On the same counts, the results for `CC(=O)Nc1ccc2c(NC3CCC3)ccnc2c1O` [AA-34-132] are 94%, 6.56 µM, 100 µM and 27.7 µM.
For the molecule `O=C(CN1CCOCC1)Nc1ccc2c(NC3CCCCC3)ccnc2c1O` [AA-34-171], the inhibition at 30 µM at Human TOP2A (setting [3]) stood at 62%. For the same molecule, the half-maximal effective concentration (EC50) came out at 48.2 µM in experiment [1] and 17.5 µM in experiment [2].
The matching figures for `O=C(CCN1CCOCC1)Nc1ccc2c(NC3CCCCC3)ccnc2c1O` [AA-34-180]: 0%, 65.5 µM and 13 µM.
With `COc1ccc(F)cc1-c1ccnc2c(OC)c(NC(C)=O)ccc12` [Analog 6], on Human TOP2A (setting [5]), the “% Inhibition TOP2A (30 μM)” value came out at 0.0%.
Same read-out and setting: in the case of `CC(=O)Nc1ccc2c(-c3ccccc3)ccnc2c1O` [Analog 28] it was 25.0%.
With `CC(=O)Nc1ccc2c(-c3cccc(F)c3)ccnc2c1O` [Analog 29], the inhibition at 30 µM at Human TOP2A (setting [6]) turned out to be 100%. In addition, at Human TOP2A (setting [7]), the IC50 is 7.8 µM. For the same molecule, the “TOP2A inhibition, result in words” value at Human TOP2A was “potent inhibition of TOP2A activity”.
Consider `CC(=O)Nc1ccc2c(-c3ccc(F)cc3)ccnc2c1O` [Analog 30], for which the “% Inhibition TOP2A (30 μM)” value at Human TOP2A (setting [5]) worked out at 1.0%. Further, the “TOP2A inhibition, result in words” value on Human TOP2A was “the activity is lost”.
For `CC(=O)Nc1ccc2c(-c3cccc(C(F)(F)F)c3)ccnc2c1O` [Analog 31], the IC50 on Human TOP2A (setting [7]) is 3.4 µM. The “% Inhibition TOP2A (30 μM)” value on Human TOP2A (setting [5]) was 97.0%. The “TOP2A inhibition, result in words” value on Human TOP2A was “excellent inhibitory activity”.
As to `CC(=O)Nc1ccc2c(-c3ccc(C(F)(F)F)cc3)ccnc2c1O` [Analog 32], on Human TOP2A (setting [6]), the inhibition at 30 µM is 97%. For the same molecule, on Human TOP2A (setting [7]), the IC50 is 0.7 µM. For the same molecule, the “TOP2A inhibition, result in words” value on Human TOP2A was “excellent inhibitory activity”.
As for `CC(=O)Nc1ccc2c(-c3cccc(O)c3)ccnc2c1O` [Analog 33], on Human TOP2A (setting [5]), the “% Inhibition TOP2A (30 μM)” value came to 0.0%.
For the molecule `CC(=O)Nc1ccccc1-c1ccnc2c(O)c(NC(C)=O)ccc12` [Analog 34], the “% Inhibition TOP2A (30 μM)” value on Human TOP2A (setting [5]) was 1.0%. Further, the “TOP2A inhibition, result in words” value on Human TOP2A was “significant loss of activity”.
For `CC(=O)Nc1cccc(-c2ccnc3c(O)c(NC(C)=O)ccc23)c1` [Analog 36], the “% Inhibition TOP2A (30 μM)” value at Human TOP2A (setting [5]) turned out to be 3.0%. The “TOP2A inhibition, result in words” value at Human TOP2A was “significant loss of activity”.
Take `CC(=O)Nc1ccc2c(-c3cc(C(F)(F)F)ccc3O)ccnc2c1O` [Analog 37]: the inhibition at 30 µM on Human TOP2A (setting [6]) came to 100%. Moreover, the IC50 on Human TOP2A (setting [7]) turned out to be 9 µM. Also, the “TOP2A inhibition, result in words” value at Human TOP2A is “excellent inhibitory activity”.
With `CC(=O)Nc1ccc2c(-c3cc(Cl)ccc3O)ccnc2c1O` [Analog 38], the “% Inhibition TOP2A (30 μM)” value at Human TOP2A (setting [5]) is listed as 0.0%. The “TOP2A inhibition, result in words” value at Human TOP2A is “no activity was observed”.
On to `CC(C)(C)C(=O)Nc1ccc2c(-c3cc(F)ccc3O)ccnc2c1O` [Analog 40], for which the “% Inhibition TOP2A (30 μM)” value at Human TOP2A (setting [5]) is given as 0.0%.
On the same count and under the same terms, under `CC(=O)Nc1ccccc1-c1ccnc2c(O)c(NC(=O)CCN3CCOCC3)ccc12` [Analog 43] stands 1.0%.
On to `CC(=O)Nc1ccc2c(-c3cc4ccccc4s3)ccnc2c1O` [Analog 54], for which the “% Inhibition TOP2A (30 μM)” value at Human TOP2A (setting [5]) came to 0.0%. Further, the “TOP2A inhibition, result in words” value on Human TOP2A is listed as “inhibition was lost”.
On to `CC(=O)Nc1ccc2c(-c3ccco3)ccnc2c1O` [Analog 55], for which the “% Inhibition TOP2A (30 μM)” value at Human TOP2A (setting [5]) is recorded as 0.0%. Besides, at Human TOP2A, the “TOP2A inhibition, result in words” value is “significant loss of activity”.
As for `CC(=O)Nc1ccc2c(-c3ccsc3)ccnc2c1O` [Analog 58], the inhibition at 30 µM on Human TOP2A (setting [6]) came to 92%. The IC50 at Human TOP2A (setting [7]) was 5 µM. Besides, the “TOP2A inhibition, result in words” value at Human TOP2A is “improves activity compared to the 3-furanyl analog 56”.
Consider `CC(=O)Nc1ccc2c(-c3cncnc3)ccnc2c1O` [Analog 59], for which the “% Inhibition TOP2A (30 μM)” value at Human TOP2A (setting [5]) is on record as 0.0%.
For the molecule `O=C(CN1CCOCC1)Nc1ccc2c(-c3cc4ccccc4o3)ccnc2c1O` [Analog 60], the inhibition at 30 µM at Human TOP2A (setting [6]) amounted to 100%. In addition, at Human TOP2A (setting [7]), the IC50 is 5 µM.
